Measured values reported in the supplement of paper PMC6045584.
± gives the standard deviation of the averaged measurements.

What was measured:
MK0752 = compound: O=C(O)CC[C@H]1CC[C@@](c2cc(F)ccc2F)(S(=O)(=O)c2ccc(Cl)cc2)CC1 [MK0752]; experiment: surviving fraction relative to DMSO-only wells; higher = less growth inhibition; conditions: exposure time: 5 days
Method in brief: (§1)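 Luminescence normalised to the median of DMSO-only wells defines surviving fraction, with viability read by CellTiter-Glo. Signal was recorded after 10 minutes at room temperature, once log-phase tumour cell lines seeded at 250–500 cells per well in 384-well plates had spent 24 hours settling and then five days under continuous exposure to inhibitors at 0.5, 1, 5, 10, 50, 100, 500 and 1000 nM.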

SUNITINIB = compound: CCN(CC)CCNC(=O)c1c(C)[nH]c(/C=C2\C(=O)Nc3ccc(F)cc32)c1C [SUNITINIB]; experiment: as above; conditions: exposure time: 5 days
Method in brief: as §1

## MDAMB453 BREAST
MK0752; 0.5 nM
  surviving fraction: 1.04 ± 0.078
MK0752; 1 nM
  surviving fraction: 1.06 ± 0.052
MK0752; 5 nM
  surviving fraction: 1.1 ± 0.023
MK0752; 10 nM
  surviving fraction: 1.09 ± 0.051
MK0752; 50 nM
  surviving fraction: 1.08 ± 0.049
MK0752; 100 nM
  surviving fraction: 1.14 ± 0.034
MK0752; 500 nM
  surviving fraction: 1.01 ± 0.029
MK0752; 1000 nM
  surviving fraction: 1.07 ± 0.043
SUNITINIB; 0.5 nM
  surviving fraction: 0.982 ± 0.0066
SUNITINIB; 10 nM
  surviving fraction: 1.03 ± 0.026
SUNITINIB; 50 nM
  surviving fraction: 1.022 ± 0.005
SUNITINIB; 500 nM
  surviving fraction: 0.986 ± 0.059
SUNITINIB; 1000 nM
  surviving fraction: 0.724 ± 0.047

## MDAMB468 BREAST
MK0752; 0.5 nM
  surviving fraction: 1.03 ± 0.085
MK0752; 1 nM
  surviving fraction: 1.01 ± 0.074
MK0752; 5 nM
  surviving fraction: 1.1 ± 0.035
MK0752; 10 nM
  surviving fraction: 1.07 ± 0.07
MK0752; 50 nM
  surviving fraction: 1.17 ± 0.023
MK0752; 100 nM
  surviving fraction: 1.17 ± 0.028
MK0752; 500 nM
  surviving fraction: 1.07 ± 0.035
MK0752; 1000 nM
  surviving fraction: 1.1 ± 0.035
SUNITINIB; 0.5 nM
  surviving fraction: 0.8 ± 0.046
SUNITINIB; 10 nM
  surviving fraction: 0.927 ± 0.072
SUNITINIB; 50 nM
  surviving fraction: 1.1 ± 0.091
SUNITINIB; 100 nM
  surviving fraction: 1.04 ± 0.084

## MFM223 BREAST
MK0752; 0.5 nM
  surviving fraction: 1.21 ± 0.047
MK0752; 1 nM
  surviving fraction: 1.14 ± 0.13
MK0752; 5 nM
  surviving fraction: 1.16 ± 0.048
MK0752; 10 nM
  surviving fraction: 1.155 ± 0.0068
MK0752; 50 nM
  surviving fraction: 1.19 ± 0.03
MK0752; 100 nM
  surviving fraction: 1.23 ± 0.016
MK0752; 500 nM
  surviving fraction: 1.19 ± 0.1
MK0752; 1000 nM
  surviving fraction: 1.19 ± 0.067
SUNITINIB; 0.5 nM
  surviving fraction: 0.75 ± 0.033
SUNITINIB; 1 nM
  surviving fraction: 0.758 ± 0.032
SUNITINIB; 5 nM
  surviving fraction: 0.7412 ± 0.002
SUNITINIB; 10 nM
  surviving fraction: 0.707 ± 0.041
SUNITINIB; 50 nM
  surviving fraction: 1.01 ± 0.11
SUNITINIB; 100 nM
  surviving fraction: 0.832 ± 0.058
SUNITINIB; 500 nM
  surviving fraction: 0.398 ± 0.013
SUNITINIB; 1000 nM
  surviving fraction: 0.247 ± 0.015

## MG63 BONE
MK0752; 0.5 nM
  surviving fraction: 1.07 ± 0.047
MK0752; 1 nM
  surviving fraction: 1.07 ± 0.033
MK0752; 5 nM
  surviving fraction: 1.11 ± 0.037
MK0752; 10 nM
  surviving fraction: 1.08 ± 0.022
MK0752; 50 nM
  surviving fraction: 1.13 ± 0.055
MK0752; 100 nM
  surviving fraction: 1.1 ± 0.029
MK0752; 500 nM
  surviving fraction: 0.987 ± 0.029
MK0752; 1000 nM
  surviving fraction: 0.955 ± 0.02
SUNITINIB; 0.5 nM
  surviving fraction: 0.872 ± 0.02
SUNITINIB; 1 nM
  surviving fraction: 0.865 ± 0.034
SUNITINIB; 5 nM
  surviving fraction: 0.876 ± 0.015
SUNITINIB; 50 nM
  surviving fraction: 0.877 ± 0.028
SUNITINIB; 100 nM
  surviving fraction: 0.854 ± 0.016
SUNITINIB; 500 nM
  surviving fraction: 0.721 ± 0.025
SUNITINIB; 1000 nM
  surviving fraction: 0.637 ± 0.014

## MHM BONE
MK0752; 0.5 nM
  surviving fraction: 1 ± 0.032
MK0752; 1 nM
  surviving fraction: 1.04 ± 0.029
MK0752; 5 nM
  surviving fraction: 1.06 ± 0.029
MK0752; 10 nM
  surviving fraction: 1.06 ± 0.043
MK0752; 50 nM
  surviving fraction: 1.08 ± 0.029
MK0752; 100 nM
  surviving fraction: 1.08 ± 0.013
MK0752; 500 nM
  surviving fraction: 0.975 ± 0.025
MK0752; 1000 nM
  surviving fraction: 0.989 ± 0.026
SUNITINIB; 0.5 nM
  surviving fraction: 0.956 ± 0.038
SUNITINIB; 1 nM
  surviving fraction: 0.962 ± 0.021
SUNITINIB; 5 nM
  surviving fraction: 0.9887 ± 0.0061
SUNITINIB; 500 nM
  surviving fraction: 0.881 ± 0.021
SUNITINIB; 1000 nM
  surviving fraction: 0.774 ± 0.021

## NCIH441 LUNG
MK0752; 0.5 nM
  surviving fraction: 0.971 ± 0.21
MK0752; 1 nM
  surviving fraction: 1 ± 0.17
MK0752; 5 nM
  surviving fraction: 1.11 ± 0.057
MK0752; 10 nM
  surviving fraction: 1.08 ± 0.099
MK0752; 50 nM
  surviving fraction: 1.02 ± 0.03
MK0752; 100 nM
  surviving fraction: 1.05 ± 0.061
MK0752; 500 nM
  surviving fraction: 1.07 ± 0.11
MK0752; 1000 nM
  surviving fraction: 0.974 ± 0.065
SUNITINIB; 0.5 nM
  surviving fraction: 0.963 ± 0.039
SUNITINIB; 10 nM
  surviving fraction: 0.952 ± 0.029
SUNITINIB; 50 nM
  surviving fraction: 1.02 ± 0.043
SUNITINIB; 100 nM
  surviving fraction: 0.977 ± 0.079
SUNITINIB; 1000 nM
  surviving fraction: 0.764 ± 0.079

## NOS1 BONE
MK0752; 0.5 nM
  surviving fraction: 1.08 ± 0.058
MK0752; 1 nM
  surviving fraction: 1.19 ± 0.087
MK0752; 5 nM
  surviving fraction: 1.16 ± 0.12
MK0752; 10 nM
  surviving fraction: 1.27 ± 0.068
MK0752; 50 nM
  surviving fraction: 1.16 ± 0.042
MK0752; 100 nM
  surviving fraction: 1.28 ± 0.23
MK0752; 500 nM
  surviving fraction: 1.05 ± 0.083
MK0752; 1000 nM
  surviving fraction: 1.08 ± 0.032
SUNITINIB; 0.5 nM
  surviving fraction: 0.762 ± 0.05
SUNITINIB; 10 nM
  surviving fraction: 0.645 ± 0.039
SUNITINIB; 50 nM
  surviving fraction: 0.561 ± 0.029
SUNITINIB; 100 nM
  surviving fraction: 0.391 ± 0.027
SUNITINIB; 500 nM
  surviving fraction: 0.167 ± 0.012
SUNITINIB; 1000 nM
  surviving fraction: 0.113 ± 0.03

## NY BONE
MK0752; 0.5 nM
  surviving fraction: 1.04 ± 0.025
MK0752; 1 nM
  surviving fraction: 1.07 ± 0.03
MK0752; 5 nM
  surviving fraction: 1.11 ± 0.017
MK0752; 10 nM
  surviving fraction: 1.11 ± 0.052
MK0752; 50 nM
  surviving fraction: 1.07 ± 0.036
MK0752; 100 nM
  surviving fraction: 1.1 ± 0.02
MK0752; 500 nM
  surviving fraction: 1.02 ± 0.042
MK0752; 1000 nM
  surviving fraction: 1.06 ± 0.034
SUNITINIB; 0.5 nM
  surviving fraction: 0.904 ± 0.016
SUNITINIB; 1 nM
  surviving fraction: 0.855 ± 0.023
SUNITINIB; 10 nM
  surviving fraction: 0.918 ± 0.04
SUNITINIB; 50 nM
  surviving fraction: 0.937 ± 0.01
SUNITINIB; 100 nM
  surviving fraction: 0.929 ± 0.019
SUNITINIB; 500 nM
  surviving fraction: 0.696 ± 0.023
SUNITINIB; 1000 nM
  surviving fraction: 0.481 ± 0.036

## OS25HAL BONE
MK0752; 0.5 nM
  surviving fraction: 1 ± 0.016
MK0752; 1 nM
  surviving fraction: 1.04 ± 0.029
MK0752; 5 nM
  surviving fraction: 1.022 ± 0.0072
MK0752; 10 nM
  surviving fraction: 0.99 ± 0.04
MK0752; 50 nM
  surviving fraction: 1.09 ± 0.0091
MK0752; 100 nM
  surviving fraction: 1.1 ± 0.048
MK0752; 500 nM
  surviving fraction: 1.02 ± 0.057
MK0752; 1000 nM
  surviving fraction: 1.07 ± 0.02
SUNITINIB; 0.5 nM
  surviving fraction: 0.886 ± 0.014
SUNITINIB; 10 nM
  surviving fraction: 0.871 ± 0.053
SUNITINIB; 50 nM
  surviving fraction: 0.926 ± 0.038
SUNITINIB; 100 nM
  surviving fraction: 0.925 ± 0.02
SUNITINIB; 500 nM
  surviving fraction: 0.767 ± 0.07
SUNITINIB; 1000 nM
  surviving fraction: 0.431 ± 0.04

## OSHN BONE
MK0752; 0.5 nM
  surviving fraction: 1.12 ± 0.034
MK0752; 1 nM
  surviving fraction: 1.14 ± 0.035
MK0752; 5 nM
  surviving fraction: 1.11 ± 0.018
MK0752; 10 nM
  surviving fraction: 1.11 ± 0.018
MK0752; 50 nM
  surviving fraction: 1.11 ± 0.034
MK0752; 100 nM
  surviving fraction: 1.13 ± 0.018
MK0752; 500 nM
  surviving fraction: 1.12 ± 0.02
MK0752; 1000 nM
  surviving fraction: 1.09 ± 0.017
SUNITINIB; 0.5 nM
  surviving fraction: 0.9083 ± 0.0045
SUNITINIB; 1 nM
  surviving fraction: 0.906 ± 0.0096
SUNITINIB; 10 nM
  surviving fraction: 0.8813 ± 0.0055
SUNITINIB; 100 nM
  surviving fraction: 0.962 ± 0.017
SUNITINIB; 500 nM
  surviving fraction: 0.86 ± 0.019
SUNITINIB; 1000 nM
  surviving fraction: 0.42 ± 0.026
